The target in assay [1] is T1, GRF4 (Homo sapiens, UniProt Q9Y4G8).
T1 construct: Flag, HA or myc tags was added to the N-terminus of full length GRF4 using PCR; expressed in transfected cells; host or cells: HEK-293T
T1 sequence (Q9Y4G8 1-1499): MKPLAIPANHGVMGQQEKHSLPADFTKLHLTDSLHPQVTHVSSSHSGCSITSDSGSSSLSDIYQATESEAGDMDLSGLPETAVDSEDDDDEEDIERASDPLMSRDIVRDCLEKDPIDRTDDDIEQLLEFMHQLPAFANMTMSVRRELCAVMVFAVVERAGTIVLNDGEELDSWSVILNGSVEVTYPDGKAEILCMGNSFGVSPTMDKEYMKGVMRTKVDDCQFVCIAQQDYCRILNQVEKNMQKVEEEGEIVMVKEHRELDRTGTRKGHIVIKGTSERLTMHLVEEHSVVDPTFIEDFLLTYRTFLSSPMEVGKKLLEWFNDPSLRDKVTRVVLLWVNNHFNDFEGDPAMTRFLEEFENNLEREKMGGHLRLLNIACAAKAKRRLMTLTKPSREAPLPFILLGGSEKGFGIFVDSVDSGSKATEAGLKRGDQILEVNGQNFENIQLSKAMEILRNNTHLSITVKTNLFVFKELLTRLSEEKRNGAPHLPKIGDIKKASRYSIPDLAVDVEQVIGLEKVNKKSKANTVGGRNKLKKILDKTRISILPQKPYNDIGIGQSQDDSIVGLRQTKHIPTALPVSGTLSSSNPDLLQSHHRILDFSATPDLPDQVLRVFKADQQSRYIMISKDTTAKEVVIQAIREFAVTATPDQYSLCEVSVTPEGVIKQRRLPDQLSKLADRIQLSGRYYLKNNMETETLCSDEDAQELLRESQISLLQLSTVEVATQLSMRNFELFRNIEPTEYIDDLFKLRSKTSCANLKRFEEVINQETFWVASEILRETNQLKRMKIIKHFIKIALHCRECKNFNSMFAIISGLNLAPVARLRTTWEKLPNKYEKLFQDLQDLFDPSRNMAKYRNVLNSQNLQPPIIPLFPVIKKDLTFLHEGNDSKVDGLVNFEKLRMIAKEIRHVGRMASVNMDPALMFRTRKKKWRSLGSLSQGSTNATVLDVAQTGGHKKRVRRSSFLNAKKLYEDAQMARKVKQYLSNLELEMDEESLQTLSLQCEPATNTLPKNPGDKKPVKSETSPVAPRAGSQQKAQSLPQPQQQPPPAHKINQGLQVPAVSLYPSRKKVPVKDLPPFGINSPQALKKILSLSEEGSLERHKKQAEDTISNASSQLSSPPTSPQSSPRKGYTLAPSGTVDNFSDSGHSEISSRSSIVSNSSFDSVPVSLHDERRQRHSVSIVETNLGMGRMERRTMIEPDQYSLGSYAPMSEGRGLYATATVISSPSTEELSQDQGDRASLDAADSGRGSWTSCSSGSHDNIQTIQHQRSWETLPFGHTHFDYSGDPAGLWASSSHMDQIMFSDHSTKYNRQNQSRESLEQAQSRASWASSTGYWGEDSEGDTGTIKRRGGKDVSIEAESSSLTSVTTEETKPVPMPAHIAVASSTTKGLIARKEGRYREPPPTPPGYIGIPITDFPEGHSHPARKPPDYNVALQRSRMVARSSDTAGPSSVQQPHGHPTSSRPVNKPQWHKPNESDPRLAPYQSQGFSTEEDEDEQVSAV
In words: Ras activation assay in living cells (GST-Raf1-RBD pull-down), treatment of GRF4-transfected cells. The assay is classed as cell-based. Conditions: for Effect of PKG inhibitor on 8-Br-cGMP enhanced activation of Ras by GRF4: H-8 5 μM or Rp-8-Br-cGMPS 25 μM, then 8-Br-cGMP 500 μM; for Effect of PKG inhibitor on 8-Br-cGMP enhanced activation of Ras by GRF4 / cAMP stimulation of GRF4-mediated activation of Ras in the presence of PKA inhibitor: 30 min; for cAMP stimulation of GRF4-mediated activation of Ras in the presence of PKA inhibitor: H-89 10 μM or Rp-8-Br-cAMPS 50 μM, then 8-Br-cAMP 500 μM; for GRF4 stimulation of Ras activation enhanced following treatment / Enhancement of activation of Ras by GRF4 by membrane permeable cNMP analogue: HEK-293T cells transfected with Flag-GRF4; for Enhancement of activation of Ras by GRF4 by membrane permeable cNMP analogue: analogue 500 μM. On the procedure:
Cells were then lysed and lysate incubated with immobilized Ras binding domain (RBD) of Raf1 (GST-Raf1-RBD), which binds activated (GTP-bound) Ras. Co-precipitated activated ras was then detected with anti Ras antibodies (Quality Biotech) (upper panel). Lower 2 panels depict the amounts of total endogenous Ras and of the transfected GRF4 (detected with anti Ras and anti Flag antibodies, respectively).
Cells were transfected (or not) with Flag-GRF4 and serum-starved overnight as in (a) above, pre-treated (or not) with the PKG inhibitors H8 (5 μM) or Rp-cGMPS (25 μM) and then treated (or not) with the cGMP analogue 8-Br-cGMP (500 μM), as in (a) above. Activated Ras was then precipitated with GST-Raf1-RBD (upper panel), as in (a). Lower panels show total endogenous Ras and GRF4 expressed in the cells.
Parallel treatments with 8-Br-cAMP or 8-Br-cGMP were used as positive controls. Lysates of treated cells were then incubated with GST-Raf1-RBD to precipitate activated Ras, and immunoblotted with anti Ras antibodies, as above (upper panel). Lower panels are as in (a) and (b) above.
The membrane permeable 8-Br-cAMP and 8Br-cGMP analogs (Sigma) were used at a concenreation of 500 μM for 15 min. Inhibitors of PKA: H-89 and Rp-8-Br-cAMPS (CalBiochem) were used at 10 μM and 50 μM, respectively, for 30 min. Inhibitors of PKG: H-8 and Rp-8-Br-cGMPS (CalBiochem) were used at 5 μM and 25 μM, respectively, for 30 min. Activators of Adenylyl Cyclase, Forskolin (Sigma), and activator of Guanylyl Cyclase, YC-1 (CalBiochem), were used at 50 μM and 100 μM, respectively, for 15 min.
(§1) HEK-293T cells were transfected as above, serum starved overnight and then subjected to various treatments, as described in the text. Cells were lysed with lysis buffer (25 mM Hepes, pH 7.5, 150 mM NaCl, 1% NP-40, 0.25% Na deoxycholate, 10% glycerol, 25 mM NaF, 10 mM MgCl2, 1 mM EDTA, 1 mM NaVO4, […]) and the level of Ras.GTP or Rap. GTP in the lysates was determined using activation specific probes as described. Briefly, to determined the levels of active Ras (Ras-GTP) in cell, sepharose-bound GST fusion protein of the Ras-binding domain (RBD) of Raf-1 (GST-Raf1-RBD; Upstate Biotechnology Inc.) was used to precipitate Ras-GTP from cell lysates, and the amount of Ras-GTP determined by immunoblotting with anti Ras antibodies (Quality Biotech). Similarly, to determine the level of Rap1-GTP in cell lysates, sepharose-bound GST fusion proteins of the Rap1-binding domain of RaIGDS (GST-RaIGDS-RBD) were used to precipitate Rap1-GTP, which was then detected on a Western blot using anti-Rap1 antibodies (Transduction Lab).

Assay [2] has as its target T1, GRF4. The experiment in a line: Activation of Ras and MAPK by cNMP analogues in GRF4-transfected HEK-293T cells. The following applies: HEK-293T cells transfected with GRF4; not in untransfected cells. The assay is classed as cell-based. On the procedure:
The small GTPase Ras controls the MAPK pathway and exerts its effects on cellular processes primarily through this pathway. MAPK is a downstream kinase of Ras and thus, Ras activation leads to MAPK activation (FIG. 6A). Therefore, we show the GRF4 effects on MAPK activation using assays in which levels of active MAPK in cells is determined using antibodies recognizing phosphorylated (active) MAPK.

In another assay the test system is Rap1. The experiment in a line: Rap1 activation assay in living cells (GST-RalGDS-RBD pull-down). Format: cell-based, human. The following applies: HEK-293T cells expressing GRF4. On the procedure: as §1
A further assay addresses T2, GRF4-cNMP-BD (Homo sapiens, UniProt Q9Y4G8).
T2 construct: The GST-GRF4-cNMP-BD (residue 101-303); made in house
T2 sequence (Q9Y4G8 101-303): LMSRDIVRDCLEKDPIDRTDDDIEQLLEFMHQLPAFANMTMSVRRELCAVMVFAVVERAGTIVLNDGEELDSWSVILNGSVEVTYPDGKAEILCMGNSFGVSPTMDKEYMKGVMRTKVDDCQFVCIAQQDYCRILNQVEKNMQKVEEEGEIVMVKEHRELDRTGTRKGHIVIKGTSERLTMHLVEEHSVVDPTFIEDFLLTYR
In words: cAMP-agarose binding assay. Conditions: data not shown. The method, then:
Right and left panels in (b) represent two separate experiments.
Following extensive washes in HNTG (20 mM Hepes, pH 7.5, 150 mM NaCl, 0.1% Triton ×100, 10% Glycerol) proteins were eluted off beads with sample buffer, separated on SDS-PAGE and immunoblotted with either anti GST antibodies for the in vitro binding experiments, or with anti GRF4 antibodies for the pull down experiments.

As for `Nc1nc2c(nc(Br)n2[C@@H]2O[C@@H]3COP(O)(=S)O[C@H]3[C@H]2O)c(=O)[nH]1` (single isomer, unassigned) [RP8-Br-cGMPS, Guanosine 3′,5′-cyclic monophosphorothioate, 8-Bromo-, Rp-isomer], on GRF4 [1], the “Effect of PKG inhibitor on 8-Br-cGMP enhanced activation of Ras by GRF4” value is “lack of effect”.
Turning to `Nc1ncnc2c1nc(Br)n2C1OC2COP(O)(=S)OC2C1O` (single isomer, unassigned) [Rp8-Br-cAMPS, Adenosine 3′,5′-cyclic monophosphorothioate, 8-Bromo-, Rp-isomer], on GRF4 [1], the “cAMP stimulation of GRF4-mediated activation of Ras in the presence of PKA inhibitor” value is recorded as “still able to stimulate”.
Turning to `Nc1ncnc2c1nc(Br)n2[C@@H]1O[C@@H]2COP(=O)(O)O[C@H]2[C@H]1O` [8-Br-cAMP], the “GRF4 stimulation of Ras activation enhanced following treatment” value at GRF4 [1] (8-Br-cAMP 500 μM 15 min plus H-89 10 μM 30 min pre-treatment) was determined as 3.5 fold; at GRF4 [1] (8-Br-cAMP 500 μM, 15 min), 3.9 fold. Further, the “Enhancement of activation of Ras by GRF4 by membrane permeable cNMP analogue” value at GRF4 [1] (15 min) was “greatly enhanced”. Moreover, the “Activation of Ras and of MAPK in GRF4-expressing cells” value on GRF4 [2] is on record as “leads to activation”. The “Stimulation of GRF4-mediated activation of Rap1” value with Rap1 is listed as “not stimulated”.
Turning to `Nc1nc2c(nc(Br)n2[C@@H]2O[C@@H]3COP(=O)(O)O[C@H]3[C@H]2O)c(=O)[nH]1` [8-Br-cGMP], at GRF4 [1] (15 min), the “Enhancement of activation of Ras by GRF4 by membrane permeable cNMP analogue” value is “greatly enhance”. The “Activation of Ras and of MAPK in GRF4-expressing cells” value on GRF4 [2] is given as “leads to activation”.
For `CNCCNS(=O)(=O)c1cccc2cnccc12` [H-8, N-[2-(methylamino)ethyl]-5-isoquinolinesulfonamide], at GRF4 [1], the “Effect of PKG inhibitor on 8-Br-cGMP enhanced activation of Ras by GRF4” value is on record as “lack of effect”.
In the case of `O=S(=O)(NCCNCC=Cc1ccc(Br)cc1)c1cccc2cnccc12` [H-89, N-[2-((Pbromocinnamyi)amino)ethyl]-5-isoquinoiinesulfonamide], the “cAMP stimulation of GRF4-mediated activation of Ras in the presence of PKA inhibitor” value on GRF4 [1] is on record as “still able to stimulate”.
For `Nc1nc2c(ncn2[C@@H]2O[C@@H]3COP(=O)(O)O[C@H]3[C@H]2O)c(=O)[nH]1` [cGMP, reference compound], the “Competition of cAMP binding to the GRF4-cNMP-BD” value at GRF4-cNMP-BD is “effectively competed”.

These data come from patent US20020143164A1, “Ras activator nucleic acid molecules, polypeptides and methods of use” (priority 1999, published 2002).
